From ChEMBL document CHEMBL5500399, “Design, Synthesis, and Biological Evaluation of 1,2,4-Oxadiazole Derivatives Containing an Aryl Carboxylic Acid Moiety as Potent Sarbecovirus Papain-like Protease Inhibitors” (J Med Chem, 2024)
Activity calls are given as the source filed them. The rule behind the calls is not given here.

How the values were obtained:
[1] = molecular target: T1, Replicase polyprotein 1ab (Severe acute respiratory syndrome coronavirus 2, UniProt P0DTD1); test: Inhibition of SARS-CoV2 PLpro using Z-RLRGG-AMC as substrate preincubated for 10 mins followed by substrate addition and measured after 20 sec shaking for 30 mins by time-resolved fluorescence assay
[2] = molecular target: Replicase polyprotein 1ab (Severe acute respiratory syndrome coronavirus 2) (UniProt P0DTD1); test: Binding affinity to SARS-CoV2 PLpro assessed as stabilization by measuring increase melting temperature by thermal shift assay
[3] = molecular target: Replicase polyprotein 1ab (Severe acute respiratory syndrome coronavirus 2) (UniProt P0DTD1); test: Potency index, ratio of GRL0617 IC50 to test compound IC50 for inhibition of SARS-CoV2 PLpro
[4] = Metabolic stability in human hepatocytes assessed as compound remaining at 1 uM measured after 30 mins; type: ADME, cell-based, Hepatocyte; details: read-out: Stability
[5] = Metabolic stability in human hepatocytes assessed as intrinsic clearance per million cells at 1 uM measured upto 30 mins; type: ADME, cell-based, Hepatocyte; details: read-out: CLH
[6] = Metabolic stability in mouse hepatocytes assessed as compound remaining at 1 uM measured after 30 mins; type: ADME, cell-based, Hepatocyte; details: read-out: Stability
[7] = molecular target: T1, Replicase polyprotein 1ab; test: Binding affinity to SARS-CoV2 PLpro by biolayer interferometry analysis
[8] = Metabolic stability in mouse hepatocytes assessed as intrinsic clearance per million cells at 1 uM measured upto 30 mins; type: ADME, cell-based, Hepatocyte; details: read-out: CLH
[9] = Metabolic stability in mouse hepatocytes assessed as half life at 1 uM measured upto 30 mins; type: ADME, cell-based, Hepatocyte
[10] = Metabolic stability in human hepatocytes assessed as half life at 1 uM measured upto 30 mins; type: ADME, cell-based, Hepatocyte
[11] = system: Severe acute respiratory syndrome-related coronavirus; test: Inhibition of SARS-CoV PLpro using Z-RLRGG-AMC as substrate preincubated for 10 mins followed by substrate addition and measured after 20 sec shaking for 30 mins by time-resolved fluorescence assay
[12] = molecular target: Replicase polyprotein 1ab (Severe acute respiratory syndrome coronavirus 2) (UniProt P0DTD1); test: Inhibition of SARS-CoV2 PLpro cleavage activity using 2Ub-K48 as substrate incubated overnight by SYPRO Ruby staining based SDS-PAGE analysis
[13] = molecular target: Replicase polyprotein 1ab (Severe acute respiratory syndrome coronavirus 2) (UniProt P0DTD1); test: Inhibition of RLRGG binding to SARS-CoV2 PLpro
[14] = Metabolic stability in CD-1 mouse liver microsomes assessed as half life at 1 uM preincubated for 5 mins followed by NADPH addition and measured after 30 mins by LC-MS/MS analysis; type: ADME, Microsome; details: time 35 min
[15] = Metabolic stability in human liver microsomes assessed as half life at 1 uM preincubated for 5 mins followed by NADPH addition and measured after 30 mins by LC-MS/MS analysis; type: ADME, Microsome; details: time 35 min
[16] = Metabolic stability in CD-1 mouse liver microsomes assessed as compound remaining at 1 uM preincubated for 5 mins followed by NADPH addition and measured after 30 mins by LC-MS/MS analysis; type: ADME, Microsome; details: read-out: Stability
[17] = molecular target: Replicase polyprotein 1ab (Middle East respiratory syndrome-related coronavirus (isolate UnitedKingdom/H123990006/2012) (Betacoronavirus England 1) (Humancoronavirus EMC)) (UniProt K9N7C7); test: Inhibition of MERS-CoV PLpro using Z-RLRGG-AMC as substrate preincubated for 10 mins followed by substrate addition and measured after 20 sec shaking for 30 mins by time-resolved fluorescence assay; details: time 40.3 min
[18] = Metabolic stability in human liver microsomes assessed as compound remaining at 1 uM preincubated for 5 mins followed by NADPH addition and measured after 30 mins by LC-MS/MS analysis; type: ADME, Microsome; details: read-out: Stability

| SMILES | IC50 [1] | other results |
| --- | --- | --- |
| COc1ccc2cc([C@@H](C)c3nc(-c4ccc(C)c(NCc5ccc(C(=O)O)s5)c4)no3)ccc2c1 | 10.5 µM |  |
| COC(=O)c1ccc(Nc2ccc(C)c(-c3noc(C(C)c4cccc5ccccc45)n3)c2)cc1 (stereo not drawn) | 70.9 µM |  |
| Cc1ccc(N)cc1-c1noc(C(C)c2cccc3ccccc23)n1 (stereo not drawn) | > 200 µM |  |
| Cc1ccc(-c2noc(-c3ccccc3)n2)cc1NCc1ccc(C(=O)O)s1 | 59 µM |  |
| Cc1ccc(-c2noc(C(c3ccccc3)c3ccccc3)n2)cc1NCc1ccc(C(=O)O)s1 | 9 µM | Activity [2]: Active |
| CC(c1noc(-c2ccc(-c3ccc(C#N)s3)cc2)n1)c1cccc2ccccc12 (stereo not drawn) | 31.4 µM |  |
| Cc1ccc(-c2noc([C@H](C)c3ccc(-c4ccccc4)c(F)c3)n2)cc1NCc1ccc(C(=O)O)s1 | 4 µM |  |
| COc1ccc2cc([C@H](C)c3nc(-c4ccc(C)c(NCc5ccc(C(=O)O)s5)c4)no3)ccc2c1 | 5.8 µM |  |
| Cc1ccc(-c2noc(C(C)c3cccc(C(O)c4ccccc4)c3)n2)cc1NCc1ccc(C(=O)O)s1 (stereo not drawn) | 11.1 µM |  |
| Cc1ccc(-c2noc(C(C)c3cccc4ccccc34)n2)cc1NCc1ccc(C(=O)O)cc1 (stereo not drawn) | 0.2 µM |  |
| Cc1ccc(NC2CCC(C#N)CC2)cc1-c1noc(C(C)c2cccc3ccccc23)n1 (stereo not drawn) | > 200 µM |  |
| Cc1ccc(-c2noc(C(C)c3cccc4ccccc34)n2)cc1NCc1ccc(C(=O)O)s1 (stereo not drawn) | 0.1 µM | Ratio IC50 [3]: 10 |
| Cc1ccc(-c2noc(-c3cccc4ccccc34)n2)cc1NCc1ccc(C(=O)O)s1 | 11.6 µM |  |
| Cc1ccc(-c2noc(C(C)(C)c3ccc(-c4ccccc4)cc3)n2)cc1NCc1ccc(C(=O)O)s1 | 35.4 µM |  |
| Cc1ccc(NCc2ccc(S(C)(=O)=O)cc2)cc1-c1noc(C(C)c2cccc3ccccc23)n1 (stereo not drawn) | 59.2 µM |  |
| CC(c1nc(-c2ccc(NCc3ccc(C(=O)O)cc3)cc2)no1)c1cccc2ccccc12 (stereo not drawn) | 50.2 µM |  |
| Cc1ccc(NC2CCCCC2)cc1-c1noc(C(C)c2cccc3ccccc23)n1 (stereo not drawn) | 101 µM |  |
| Cc1ccc(NCc2ccc(C(=O)O)o2)cc1-c1noc(C(C)c2cccc3ccccc23)n1 (stereo not drawn) | 14.4 µM |  |
| Cc1ccc(-c2noc([C@@H](C)c3ccc(-c4ccccc4)c(F)c3)n2)cc1NCc1ccc(C(=O)O)s1 | 3.4 µM |  |

| SMILES | IC50 [1] | other results |
| --- | --- | --- |
| Cc1ccc(NC2CCC(C(=O)O)CC2)cc1-c1noc(C(C)c2cccc3ccccc23)n1 (stereo not drawn) | 22.7 µM |  |
| CC(c1nc(-c2cc(NCc3ccc(C(=O)O)cc3)cc(C(F)(F)F)c2)no1)c1cccc2ccccc12 (stereo not drawn) | 0.2 µM | remaining at 0.5 h, 1 µM [4]: 56.6%; hepatocyte CLint at 1 µM [5]: 19 µL/min/1e6 cells; remaining at 0.5 h, 1 µM [6]: 28.8%; Kd [7]: 13.6 µM; hepatocyte CLint at 1 µM [8]: 41.5 µL/min/1e6 cells; half-life at 1 µM [9]: 0.278 h; half-life at 1 µM [10]: 0.608 h |
| COc1ccc2cc(C(C)c3nc(-c4ccc(C)c(NCc5ccc(C(=O)O)s5)c4)no3)ccc2c1 (racemic) | 5.9 µM |  |
| CC(c1nc(-c2cc(NCc3ccc(C(=O)O)cc3)ccc2Br)no1)c1cccc2ccccc12 (stereo not drawn) | 2.1 µM |  |
| Cc1ccc(NCc2ccc(O)cc2)cc1-c1noc(C(C)c2cccc3ccccc23)n1 (stereo not drawn) | 176 µM |  |
| Cc1ccc(-c2noc(C(C)c3cccc(-c4cccs4)c3)n2)cc1NCc1ccc(C(=O)O)s1 (stereo not drawn) | 4.1 µM | Activity [2]: Active |
| CC(c1nc(-c2ccc(-c3ccc(C(=O)O)cc3)cc2)no1)c1cccc2ccccc12 (stereo not drawn) | 11.7 µM |  |
| Cc1ccc(-c2noc(Cc3cccc(-c4cccs4)c3)n2)cc1NCc1ccc(C(=O)O)s1 | 6.8 µM |  |
| Cc1ccc(-c2noc(C(C)c3ccc(N4Cc5ccccc5C4=O)cc3)n2)cc1NCc1ccc(C(=O)O)s1 (stereo not drawn) | 3.9 µM |  |
| Cc1ccc(-c2noc(C(C)c3cccc(-c4ccccc4)c3)n2)cc1NCc1ccc(C(=O)O)s1 (stereo not drawn) | 4.3 µM |  |
| CC(c1noc(-c2ccc(-c3ccc(C(=O)O)s3)cc2)n1)c1cccc2ccccc12 (stereo not drawn) | 2.1 µM |  |
| CC(c1nc(-c2ccc(NCc3ccc(C(=O)O)s3)cc2)no1)c1cccc2ccccc12 (stereo not drawn) | 0.2 µM | inhibition [11]: Active; inhibition [12]: Active; inhibition [13]: Active; half-life at 1 µM [14]: > 1.55 h; Kd [7]: 13.6 µM; half-life at 1 µM [15]: > 1.55 h; Activity [2]: Active; remaining at 0.5 h, 1 µM [16]: 93.8%; inhibition [17]: Active; remaining at 0.5 h, 1 µM [18]: 102% |
| CC(c1nc(-c2ccc(N(C)Cc3ccc(C(=O)O)s3)cc2)no1)c1cccc2ccccc12 (stereo not drawn) | 4 µM |  |
| Cc1ccc(NC2CCCC(C(=O)O)C2)cc1-c1noc(C(C)c2cccc3ccccc23)n1 (stereo not drawn) | 35.1 µM |  |
| CC(c1nc(-c2cccc(NCc3ccc(C(=O)O)s3)c2)no1)c1cccc2ccccc12 (stereo not drawn) | 7.6 µM |  |
| COC1CCC(Nc2ccc(C)c(-c3noc(C(C)c4cccc5ccccc45)n3)c2)CC1 (stereo not drawn) | 114 µM |  |
| Cc1ccc(NCc2ccc(C(=O)O)cc2)cc1-c1noc(C(C)c2cccc3ccccc23)n1 (stereo not drawn) | 11.2 µM |  |
| Cc1ccc(-c2noc(C(C)c3ccc4c(c3)[nH]c3ccc(Cl)cc34)n2)cc1NCc1ccc(C(=O)O)s1 (stereo not drawn) | 1.9 µM | Kd [7]: 13.6 µM |
| Cc1ccc(NCC(C)(C)C)cc1-c1noc(C(C)c2cccc3ccccc23)n1 (stereo not drawn) | > 200 µM |  |

| SMILES | IC50 [1] | other results |
| --- | --- | --- |
| CC(c1nc(-c2cc(NCc3ccc(C(=O)O)s3)cc(C(F)(F)F)c2)no1)c1cccc2ccccc12 (stereo not drawn) | 0.1 µM | remaining at 0.5 h, 1 µM [4]: 79.8%; hepatocyte CLint at 1 µM [5]: 7.5 µL/min/1e6 cells; Ratio IC50 [3]: 10; remaining at 0.5 h, 1 µM [6]: 68%; Kd [7]: 13.6 µM; hepatocyte CLint at 1 µM [8]: 12.9 µL/min/1e6 cells; half-life at 1 µM [9]: 0.898 h; half-life at 1 µM [10]: 1.54 h |
| CC(c1nc(-c2cccc(NCc3ccc(C(=O)O)o3)c2)no1)c1cccc2ccccc12 (stereo not drawn) | 96.5 µM |  |
| CC(c1ncc(-c2ccc(-c3ccc(C#N)s3)cc2)o1)c1cccc2ccccc12 (stereo not drawn) | 20.8 µM |  |
| COc1ccc(-c2noc(C(C)c3cccc4ccccc34)n2)cc1NCc1ccc(C(=O)O)s1 (stereo not drawn) | 1.3 µM |  |
| Cc1ccc(-c2noc(-c3ccc(-c4ccccc4)cc3)n2)cc1NCc1ccc(C(=O)O)s1 | 25.5 µM |  |
| CC(c1nc(-c2cccc(NCc3ccc(C(=O)O)cc3)c2)no1)c1cccc2ccccc12 (stereo not drawn) | 7.5 µM |  |
| Cc1ccc(NCc2ccc(C#N)cc2)cc1-c1noc(C(C)c2cccc3ccccc23)n1 (stereo not drawn) | > 200 µM |  |
| Cc1ccc(-c2noc(C(C)c3cccc(Oc4ccccc4)c3)n2)cc1NCc1ccc(C(=O)O)s1 (stereo not drawn) | 4.4 µM | inhibition [11]: Active; inhibition [12]: Active; inhibition [13]: Active; half-life at 1 µM [14]: > 1.55 h; half-life at 1 µM [15]: > 1.55 h; remaining at 0.5 h, 1 µM [16]: 80%; inhibition [17]: Active; remaining at 0.5 h, 1 µM [18]: 87% |
| CONC(=O)c1ccc(-c2ccc(-c3noc(C(C)c4cccc5ccccc45)n3)cc2)cc1 (stereo not drawn) | 0.9 µM |  |
| CC(c1nc(-c2ccc(Nc3ccc(C(=O)O)cc3)cc2)no1)c1cccc2ccccc12 (stereo not drawn) | 4.2 µM |  |
| CC(c1ncc(-c2ccc(-c3ccc(C(=O)O)s3)cc2)o1)c1cccc2ccccc12 (stereo not drawn) | 7.7 µM |  |
| Cc1ccc(NCc2ccc(C(=O)O)s2)cc1-c1noc(C(C)c2cccc3ccccc23)n1 (stereo not drawn) | 10.4 µM |  |
| Cc1ccc(-c2noc(C(C)c3ccc(CC(C)C)cc3)n2)cc1NCc1ccc(C(=O)O)s1 (stereo not drawn) | 3.6 µM |  |
| CC(c1nc(-c2ccc(-c3ccc(C#N)s3)cc2)no1)c1cccc2ccccc12 (stereo not drawn) | 0.6 µM |  |
| COC(=O)c1ccc(CNc2ccc(C)c(-c3noc(C(C)c4cccc5ccccc45)n3)c2)cc1 (stereo not drawn) | > 200 µM |  |
| Cc1ccc(Nc2ccc(C(=O)O)cc2)cc1-c1noc(C(C)c2cccc3ccccc23)n1 (stereo not drawn) | 10.7 µM |  |
| Cc1ccc(NCc2cccc(C(=O)O)c2)cc1-c1noc(C(C)c2cccc3ccccc23)n1 (stereo not drawn) | 11.1 µM |  |
| Cc1ccc(-c2noc(C(O)c3ccccc3)n2)cc1NCc1ccc(C(=O)O)s1 (stereo not drawn) | 435 µM |  |
